Source: US8933224B2, “Triazine derivatives” (Pfizer Inc., priority 2013, dated 2015)

Key:
rat PDE10 enzyme = rat PDE10 enzyme (Rattus norvegicus (Rat), UniProt Q9QYJ6); experiment: PDE10 scintillation proximity assay (SPA), inhibition of rat PDE10 enzyme activity; type: biochemical; details: geometric mean of 2-4 determinations unless otherwise indicated (b: ≧5 determinations; c: single determination)
Summary of the method: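 SPA with fixed recombinant PDE10 (Sf21-expressed, Ni-NTA and Mono Q purified) converting ~20% of 20 nM ³H-cAMP in 50 mM TRIS pH 7.5, 1.3 mM MgCl2, 0.01% Brij, across an inhibitor range.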

[1] = biological target: human recombinant PDE10 enzyme (PDE10A) (Homo sapiens, UniProt Q9Y233); experiment: PDE10 scintillation proximity assay (SPA), inhibition of human recombinant PDE10 enzyme activity; type: biochemical; details: geometric mean of 2-4 determinations unless otherwise indicated (b: ≧5 determinations; c: single determination)
Protocol: PDE10 activity was measured using a scintillation assay (SPA-based method) similar to that previously described by Seeger, T. F. et al., Brain Research 985 (2003) 113-126. The compounds' relative activity as PDE10 inhibitors was investigated by assaying a fixed amount of enzyme in the presence of the test compound and low substrate concentration (cAMP) such that an IC50 could be determined. […] The assay is performed in a 384-well format with 50 μL assay buffer (50 mM TRIS pH 7.5; 1.3 mM MgCl2; 0.01% Brij) containing enough PDE10 to convert ˜20% of 20 nM ^3H-cAMP, and a range of inhibitors. Reactions are incubated for 30 minutes at 25° C. The addition of 20 μL of 8 mg/ml yttrium silicate SPA beads (PerkinElmer) stops the reaction. The plates are sealed (TopSeal, PerkinElmer) and the beads are allowed to settle for 8 hrs, after which they are read on the Trilux Microbeta overnight. ^1Rat enzyme preparation:^2Human enzyme preparation:
Human PDE10A coding sequence (amino acids 21 to 797 from the sequence with accession number NP_001124162.1) was synthesized using codon optimization for insect expression and cloned into the baculovirus expression vector pFastBac (Invitrogen) engineered to include a N-terminal His6 affinity tag to aid in purification as described in Seeger, T. F. et al., Brain Research 985 (2003) 113-126. The recombinant Bacmid was isolated and used to transfect sf9 insect cells to generate a viral stock. To generate cell paste for purification, sf21 cells were infected with the virus stock and cells were harvested 72 hours after infection as described in Seeger, T. F. et al., Brain Research 985 (2003) 113-126. Insect cell paste was lysed and after centrifugation, the supernatant was chromatographed on Ni-NTA agarose (Qiagen) as described in Seeger, T. F. et al., Brain Research 985 (2003) 113-126. Ni-NTA agarose eluting fractions containing PDE10A were chromatographed on Superdex 200 (GE Healthcare Life Sciences) in 50 mM Tris HCl pH 7.5, 150 mM NaCl, 1 mM EDTA, 10% glycerol, 2 mM TCEP, 1.5 mM benzamidine, EDTA-free protease inhibitors (Roche), and 5 μM E-64.

Chain of rat PDE10 enzyme (Q9QYJ6 24-794): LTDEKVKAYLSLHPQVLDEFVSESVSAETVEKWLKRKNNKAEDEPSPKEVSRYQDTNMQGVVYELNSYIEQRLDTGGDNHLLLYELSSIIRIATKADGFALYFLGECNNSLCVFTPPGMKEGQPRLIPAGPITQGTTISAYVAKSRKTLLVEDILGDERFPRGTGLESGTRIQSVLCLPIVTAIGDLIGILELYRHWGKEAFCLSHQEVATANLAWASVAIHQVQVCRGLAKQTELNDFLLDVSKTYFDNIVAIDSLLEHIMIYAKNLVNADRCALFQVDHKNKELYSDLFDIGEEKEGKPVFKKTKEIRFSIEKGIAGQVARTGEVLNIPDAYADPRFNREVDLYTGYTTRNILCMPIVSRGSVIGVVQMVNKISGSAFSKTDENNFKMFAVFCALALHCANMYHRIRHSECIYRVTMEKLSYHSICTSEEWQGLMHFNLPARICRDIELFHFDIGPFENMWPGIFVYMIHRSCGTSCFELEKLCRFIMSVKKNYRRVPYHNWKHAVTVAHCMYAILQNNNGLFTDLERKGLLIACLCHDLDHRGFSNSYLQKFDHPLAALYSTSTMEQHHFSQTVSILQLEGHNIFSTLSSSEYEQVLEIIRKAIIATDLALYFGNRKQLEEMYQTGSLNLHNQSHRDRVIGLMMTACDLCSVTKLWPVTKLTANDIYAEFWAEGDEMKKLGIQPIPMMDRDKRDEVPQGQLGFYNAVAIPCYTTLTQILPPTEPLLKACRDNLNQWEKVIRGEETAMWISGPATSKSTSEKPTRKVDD

Row | SMILES | IC50 (rat PDE10 enzyme) [nM] | IC50 [1] [nM]
1 | COc1cc2c(cn1)CN(c1ncnn3c(C)nc(-c4ccccc4F)c13)CC2 [Example 71, 2-[5-(2-fluorophenyl)-7-methylimidazo[5,1-f][1,2,4]triazin-4-yl]-6-methoxy-1,2,3,4-tetrahydro-2,7-naphthyridine] | 3.41 | 5.77
2 | Cc1ccc2c(n1)CN(c1ncnn3c(C)nc([C@@H]4CCOC4)c13)CC2 [Example 72, 2-methyl-7-{7-methyl-5-[(3S)-tetrahydrofuran-3-yl]imidazo[5,1-f][1,2,4]triazin-4-yl}-5,6,7,8-tetrahydro-1,7-naphthyridine] | 0.255 | 0.539
3 | Cc1nc([C@@H]2CCOC2)c2c(N3CCc4ccc(C5CC5)nc4C3)ncnn12 [Example 74, 2-cyclopropyl-7-{7-methyl-5-[(3S)-tetrahydrofuran-3-yl]imidazo[5,1-f][1,2,4]triazin-4-yl}-5,6,7,8-tetrahydro-1,7-naphthyridine] | 0.0896 | 0.211
4 | Cc1nc(-c2ccccc2F)c2c(N3CCc4ccc(C5CC5)nc4C3)ncnn12 [Example 75, 2-cyclopropyl-7-[5-(2-fluorophenyl)-7-methylimidazo[5,1-f][1,2,4]triazin-4-yl]-5,6,7,8-tetrahydro-1,7-naphthyridine] | 3.56 | 6.03
5 | Cc1nc([C@H]2CCOC2)c2c(N3CCc4c(c(C(C)C)nn4C)C3)ncnn12 [Example 85, 7-methyl-4-{1-methyl-3-(propan-2-yl)-1,4,6,7-tetrahydro-5H-pyrazolo[4,3-c]pyridin-5-yl]-5-[(3R)-tetrahydrofuran-3-yl]imidazo[5,1-f][1,2,4]triazine] | 0.556 | 0.182
6 | Cc1nc([C@@H]2CCOC2)c2c(N3CCc4c(c(C(C)C)nn4C)C3)ncnn12 [Example 86, 7-methyl-4-[1-methyl-3-(propan-2-yl)-1,4,6,7-tetrahydro-5H-pyrazolo[4,3-c]pyridin-5-yl]-5-[(3S)-tetrahydrofuran-3-yl]imidazo[5,1-f][1,2,4]triazine] | 0.132 | 0.0444
7 | Cc1nc2c(c(C(F)(F)F)n1)CN(c1ncnn3c(C)nc([C@@H]4CCOC4)c13)CC2 [Example 88, 2-methyl-6-{7-methyl-5-[(3S)-tetrahydrofuran-3-yl]imidazo[5,1-f][1,2,4]triazin-4-yl}-4-(trifluoromethyl)-5,6,7,8-tetrahydropyrido[4,3-d]pyrimidine] | 1.56 | 3.64
8 | Cc1nc(-c2ccccc2F)c2c(N3CCc4nc(C5CC5)nc(C(F)(F)F)c4C3)ncnn12 [Example 90, 2-cyclopropyl-6-[5-(2-fluorophenyl)-7-methylimidazo[5,1-f][1,2,4]triazin-4-yl]-4-(trifluoromethyl)-5,6,7,8-tetrahydropyrido[4,3-d]pyrimidine] | 3.09 | 4.55
9 | Cc1nc([C@@H]2CCOC2)c2c(N3CCc4cnn(C(C)C)c4C3)ncnn12 [Example 91] | 0.793 | 0.61
10 | Cc1nc(-c2ccccc2F)c2c(N3CCc4cnn(C(C)C)c4C3)ncnn12 [Example 92, 5-(2-fluorophenyl)-7-methyl-4-[1-(propan-2-yl)-1,4,5,7-tetrahydro-6H-pyrazolo[3,4-c]pyridin-6-yl]imidazo[5,1-f][1,2,4]triazine] | 0.997 | 0.664
11 | Cc1nc(C2CCOCC2)c2c(N3CCc4ncccc4C3)ncnn12 [Example 95, 6[7-methyl-5-(tetrahydro-2H-pyran-4-yl)imidazo[5,1-f][1,2,4]triazin-4-yl]-5,6,7,8-tetrahydro-1,6-naphthyridine] | 10.1 | 8.82
12 | Cc1ccc2c(n1)CCN(c1ncnn3c(C)nc([C@@H]4CCOC4)c13)C2 [Example 139, 2-methyl-6-{7-methyl-5-[(3S)-tetrahydrofuran-3-yl]imidazo[5,1-f][1,2,4]triazin-4-yl}-5,6,7,8-tetrahydro-1,6-naphthyridine] | 0.27 | 0.279

The next lines start with the values.

Row | IC50 (rat PDE10 enzyme) [nM] | IC50 [1] [nM] | SMILES
13 | 5.2 | 4.8 | Cc1nc([C@H]2CCOC2)c2c(N3CCc4ncccc4C3)ncnn12 [Example 96, 6-{7-methyl-5-[(3R)-tetrahydrofuran-3-yl]imidazo[5,1-f][1,2,4]triazin-4-yl}-5,6,7,8-tetrahydro-1,6-naphthyridine]
14 | 6.85 | 18.6 | Cc1ncc2c(n1)CCN(c1ncnn3c(C)nc(-c4ccccc4F)c13)C2 [Example 111, 6-[5-(2-fluorophenyl)-7-methylimidazo[5,1-f][1,2,4]triazin-4-yl]-2-methyl-5,6,7,8-tetrahydropyrido[4,3-d]pyrimidine]
15 | 0.943 | 1.28 | Cc1nc(-c2ccccc2F)c2c(N3CCc4c(c(C(F)(F)F)nn4C)C3)ncnn12 [Example 118, 5-(2-fluorophenyl)-7-methyl-4-[1-methyl-3-(trifluoromethyl)-1,4,6,7-tetrahydro-5H-pyrazolo[4,3-c]pyridin-5-yl]imidazo[5,1-f][1,2,4]triazine]
16 | 1.65 | 2.34 | Cc1nc(C)c2c(n1)CCN(c1ncnn3c(C)nc(-c4ccccc4F)c13)C2 [Example 130, 6-[5-(2-fluorophenyl)-7-methylimidazo[5,1-f][1,2,4]triazin-4-yl]-2,4-dimethyl-5,6,7,8-tetrahydropyrido[4,3-d]pyrimidine]
17 | 0.456 | 0.573 | CCc1nc(C)nc2c1CN(c1ncnn3c(C)nc(-c4ccccc4F)c13)CC2 [Example 131, 4-ethyl-6-[5-(2-fluorophenyl)-7-methylimidazo[5,1-f][1,2,4]triazin-4-yl]-2-methyl-5,6,7,8-tetrahydropyrido[4,3-d]pyrimidine]
18 | 0.37 | 0.625 | CCc1nc(C)nc2c1CN(c1ncnn3c(C)nc([C@@H]4CCOC4)c13)CC2 [Example 133, 4-ethyl-2-methyl-6-{7-methyl-5-[(3S)-tetrahydrofuran-3-yl]imidazo[5,1-f][1,2,4]triazin-4-yl}-5,6,7,8-tetrahydropyrido[4,3-d]pyrimidine]
19 | 2.44 | 4.51 | Cc1ncc2c(n1)CCN(c1ncnn3c(C)nc([C@@H]4CCOC4)c13)C2 [Example 134, 2-methyl-6-{7-methyl-5-[(3S)-tetrahydrofuran-3-yl]imidazo[5,1-f][1,2,4]triazin-4-yl}-5,6,7,8-tetrahydropyrido[4,3-d]pyrimidine]
20 | 0.095 | 0.0777 | CCc1nc(C2CC2)nc2c1CN(c1ncnn3c(C)nc([C@@H]4CCOC4)c13)CC2 [Example 137]
21 | 0.106 | 0.219 | Cc1nc([C@@H]2CCOC2)c2c(N3CCc4nc(C5CC5)n(C)c(=O)c4C3)ncnn12 [Example 143, 2-cyclopropyl-3-methyl-6-{7-methyl-5-[(3S)-tetrahydrofuran-3-yl]imidazo[5,1-f][1,2,4]triazin-4-yl}-5,6,7,8-tetrahydropyrido[4,3-d]pyrimidin-4(3H)-one]
22 | 0.125 | 0.166 | CCOc1nc(C2CC2)nc2c1CN(c1ncnn3c(C)nc([C@@H]4CCOC4)c13)CC2 [Example 148, 2-cyclopropyl-4-ethoxy-6-{7-methyl-5-[(3S)-tetrahydrofuran-3-yl]imidazo[5,1-f][1,2,4]triazin-4-yl}-5,6,7,8-tetrahydropyrido[4,3-d]pyrimidine]
23 | < 0.13 | 0.333 | CNc1ccc2c(n1)CCN(c1ncnn3c(C)nc([C@@H]4CCOC4)c13)C2 [Example 152, N-methyl-6-{7-methyl-5-[(3S)-tetrahydrofuran-3-yl]imidazo[5,1-f][1,2,4]triazin-4-yl}-5,6,7,8-tetrahydro-1,6-naphthyridin-2-amine]
24 | 0.905 | 1 | Cc1nc(-c2ccccc2F)c2c(N3CCc4cnn(C5CC5)c4C3)ncnn12 [Example 156, 4-(1-cyclopropyl-1,4,5,7-tetrahydro-6H-pyrazolo[3,4-c]pyridin-6-yl)-5-(2-fluorophenyl)-7-methylimidazo[5,1-f][1,2,4]triazine]
25 | 0.196 | 0.295 | Cc1nc([C@@H]2CCOC2)c2c(N3CCc4ccc(C(F)(F)F)nc4C3)ncnn12 [Example 157, 7-{7-methyl-5-[(3S)-tetrahydrofuran-3-yl]imidazo[5,1-f][1,2,4]triazin-4-yl}-2-(trifluoromethyl)-5,6,7,8-tetrahydro-1,7-naphthyridine]
